From publication PMC5035034, “Carbohydrate-Binding Non-Peptidic Pradimicins for the Treatment of Acute Sleeping Sickness in Murine Models” (PLoS Pathogens, 2016) come the findings set out here.

For the experiment, the target named is T1, VSG221 (variant surface glycoprotein 221, MITat 1.2) (Trypanosoma brucei, UniProt P26332).
T1 construct: soluble form VSG (sVSG) purified from parental bloodstream forms, N-glycosylated (Asn263, Asn428)
The experiment can be described thus: SPR (Biacore T200) on immobilized VSG221, […]. The format is binding. Background: SPR reads the build-up and loss of mass on a sensor chip optically.

Take `CN[C@@H]1[C@H](O[C@@H]2OC[C@@H](O)[C@H](O)[C@H]2O)[C@@H](O)[C@H](O[C@H]2c3cc(C)c(C(=O)N[C@H](C)C(=O)O)c(O)c3-c3c(cc4c(c3O)C(=O)c3cc(OC)cc(O)c3C4=O)[C@@H]2O)O[C@@H]1C` [PRM-A, pradimicin A]: the “SPR (Biacore T200) on immobilized VSG221, 1.56 to 50 uM” value is “using the high-density parental Tb BSF VSG221 sensorchip, concentration-dependent binding of PRM-A could be observed”.
